{"source": "patent EP1071411B1", "about": "“TOPICAL IMMUNOSTIMULATION TO INDUCE LANGERHANS CELL MIGRATION” (TORREY PINES INSTITUTE FOR MOLECULAR STUDIES, priority 1998, dated 1999)", "key": {"EG7-OVA cells": {"tested_on": "EG7-OVA cells", "assay": "Tumor-specific immunity after topical vaccination, subcutaneous tumor challenge, tumor size", "format": "in vivo, C57BL/6", "settings": "for inhibiting tumor cell growth: Figure 4", "protocol": "(§1) The C57BL/6 thymoma tumor cell line, EL4, was transfected with the complete gene for chicken ovalbumin (OVA). The resulting transfected cell line, EG7-OVA, expresses chicken ovalbumin. […] Based on the positive results using FITC, the inventors followed a similar protocol in an attempt to induce immunity to the EG7-OVA tumor by topical administration of the well-characterized, synthetic […] tumor-associated peptide.\nC57BU6 mice were treated as follows: 1) shaving alone; 2) topical administration of acetone and dibutylphthalate; 3) […] (240 :g/ml) in DMSO diluted in PBS, followed in 5 hours by acetone and dibutylphthalate; and 4) […] (240 :g/ml) in acetone and dibutylphthalate. All mice were subsequently injected subcutaneously with 5 × 10^5 EG7-OVA cells (5-times the minimal tumorogenic dose). Tumor-specific immunity was monitored by measuring tumor size.\n(§2) The mucous membranes lack the tough barrier posed by the stratum corneum. […] The EL4 parent tumor cell line, lacking chicken ovalbumin, was used as a […]; no immunity against the EL4 tumor cells was seen. Thus, the inventors' hypothesis regarding penetration of the stratum corneum was confirmed; the […] peptide was not reaching the Langerhans cells underlying the stratum corneum.\nWhile intravaginal topical administration of tumor antigen provided an effective means of routing antigen to the Langerhans cells for subsequent induction of tumor-specific immunity, mucous membrane application sites, like the vagina, are not well-suited for convenient use and monitoring by general practitioners likely to be involved in administering the topical vaccinations of the present invention. Thus, to enhance the effectiveness of cutaneous topical administration, […] was dissolved in DMSO and applied to the skin without dilution. Dibutylphthalate in acetone was applied to the same site 5 hr later. All mice were subsequently injected subcutaneously with 5 x 10^5 EG7-OVA cells. The results shown in Figure 6 indicate that the peptide in DMSO was able to traverse the stratum corneum, effectively gaining access to the Langerhans cells. Tumor growth was suppressed after 6 to 9 days and even the established tumors were completely eliminated by 16 days post-inoculation. Thus, the tumor specific peptide, […], in concentrated DMSO, penetrated the stratum corneum, was incorporated into the MHC class I molecule K^b on epidermal Langerhans cells, and in the presence of the migration inducer, dibutylphthalate, was effectively presented to CD8+ CTLs in the lymph nodes."}, "EL4 tumor cells": {"tested_on": "EL4 tumor cells", "assay": "Specificity control of intravaginal topical vaccination, parent tumor challenge", "format": "in vivo, C57BL/6", "settings": "intravaginal topical application, SIINFEKL in acetone and dibutylphthalate; Figure 5", "from_the_text": "as §1, §2"}, "Langerhans cells": {"tested_on": "Langerhans cells", "assay": "FITC Langerhans cell migration screening, draining inguinal lymph node, flow cytometry", "format": "in vivo, C57BL/6 mice", "settings": "for Total MHC class II^th cells, distance from the positive control, dibutylphthalate (DBP): 5 mg/ml FITC in acetone and migration inducer, 100 µl, after 2 days, Figure 7; for FITC+ Langerhans cell number / total dendritic cell migration into the lymph node / nonspecific immigration: agent added to topical FITC in acetone, 2 days after treatment, Figure 1", "from_the_text": "Fluorescein isothiocyanate (FITC) has been used extensively by the inventor and others, to characterize Langerhans cell migration. FITC is a small (mw 389) non-peptide, largely lipophilic molecule, capable of crossing the stratum corneum. Immunogenicity of FITC is due to the reactivity of its isothiocyanate group (-N-C-S) with free amino groups, permitting it to be covalently bound to proteins and/or peptides. C57BL/6 mice received the following treatments: 1) none; 2) abdomen shaving only; 3) topical administration of FITC in acetone; 4) topical administration of FITC in acetone and olive oil; 5) topical administration of FITC in acetone and DMSO diluted in phosphate buffered saline (PBS); and 6) topical administration of FITC in acetone and dibutylphthalate. The draining inguinal lymph nodes were then examined for immigrant Langerhans cells by immunofluorescent flow cytometry each day thereafter. Migratory Langerhans cells were identified by the presence of FITC and expression of high MHC class II molecules or by a Langerhans cell-specific monoclonal antibody (NLDC-145). Other dendritic cell residents of the lymph nodes could also be differentiated using a dendritic cell-specific monoclonal antibody, 33D1. The uptake of FITC and the Langerhans cell response to migratory signals were observable in the draining lymph node as early as six hours after topical administration. However, 48-72 hours was required for maximal rate of immigration into the lymph node. Figure 1 illustrates the effect of the various treatment regimens on total and FITC + lymphoid dendritic cells 2 days after treatment. […] Thus, dibutylphthalate was a very potent migration inducer.\nHigh numbers of FITC+ Langerhans cells were present in the lymph node by 12 hours and the peak frequency of immigrant FITC+ Langerhans cells occurred about 2 to 3 days following topical administration. […] The unlabeled dendritic cells were most likely Langerhans cells that had lost the FITC label. Five days after skin painting, the lymph node cell population had increased by approximately 7.2 fold over baseline levels.\nCompounds which are useful as inducers of Langerhans cell migration may be screened using the standard FITC methods described for the data presented in Figures 1-3. C57BL6 mice are shaved on their abdomens and painted with 100 µl test solution, containing 5 mg/ml FITC in a 50150 (v/v) mixture of acetone and the migration inducer (e.g. dibutylphthalate). After 2 days, the draining inguinal lymph node is removed and the total number of dendritic cells (both FITC+ and FITC-) is determined by flow cytometry and MHC class II immunoassay."}, "[1]": {"settings": "iontophoresis; cited from earlier work"}}, "data": [{"molecule": "CC[C@H](C)[C@H](NC(=O)[C@@H](NC(=O)[C@@H](N)CO)[C@@H](C)CC)C(=O)N[C@@H](CC(N)=O)C(=O)N[C@@H](Cc1ccccc1)C(=O)N[C@@H](CCC(=O)O)C(=O)N[C@@H](CCCCN)C(=O)N[C@@H](CC(C)C)C(=O)O", "values": [{"measurement": "inhibiting tumor cell growth", "setting": "EG7-OVA cells; cutaneous, SIINFEKL (240 :g/ml) in DMSO diluted in PBS, followed in 5 hours by acetone and dibutylphthalate", "value": "none of the treatment protocols were effective"}, {"measurement": "inhibiting tumor cell growth", "setting": "EG7-OVA cells; cutaneous, SIINFEKL (240 :g/ml) in acetone and dibutylphthalate", "value": "none of the treatment protocols were effective"}, {"measurement": "time by which established tumors were completely eliminated", "setting": "EG7-OVA cells; cutaneous, SIINFEKL in undiluted DMSO, dibutylphthalate in acetone at same site 5 hr later, Figure 6", "value": "≤ 16", "unit": "days post-inoculation"}, {"measurement": "protection against the tumor", "setting": "EG7-OVA cells; intravaginal topical application, SIINFEKL in acetone and dibutylphthalate, Figure 5", "value": "complete protection"}, {"measurement": "immunity against the EL4 tumor cells", "setting": "EL4 tumor cells", "value": "no immunity"}]}, {"molecule": "CC12CCC(CC1=O)C2(C)C", "note": "(stereo not shown) [C, camphor]", "values": [{"measurement": "Total MHC class II^th cells, distance from the positive control, dibutylphthalate (DBP)", "setting": "Langerhans cells", "value": "≤ 1", "unit": "standard deviation"}]}, {"molecule": "CCCCOC(=O)[C@@H](O)[C@H](O)C(=O)OCCCC", "note": "[DBT, dibutyl-D-tartrate]", "values": [{"measurement": "Total MHC class II^th cells, distance from the positive control, dibutylphthalate (DBP)", "setting": "Langerhans cells", "value": "≤ 1", "unit": "standard deviation"}]}, {"molecule": "C[S+](C)[O-]", "note": "[DMSO, dimethylsulfoxide]", "values": [{"measurement": "FITC+ Langerhans cell number", "setting": "Langerhans cells", "value": "no enhancement"}, {"measurement": "total dendritic cell migration into the lymph node / nonspecific immigration", "setting": "Langerhans cells", "value": "modest stimulatory effect"}]}, {"molecule": "CCCCCCCCCOC(=O)c1ccccc1C(=O)OCCCCCCCCC", "note": "[DNP, dinonylphthalate]", "values": [{"measurement": "Total MHC class II^th cells, distance from the positive control, dibutylphthalate (DBP)", "setting": "Langerhans cells", "value": "≤ 1", "unit": "standard deviation"}]}, {"molecule": "CCCCOC(=O)c1ccccc1C(=O)OCCCC", "note": "[dibutylphthalate]", "values": [{"measurement": "FITC+ Langerhans cell number", "setting": "Langerhans cells", "value": "striking effect"}, {"measurement": "total dendritic cell migration into the lymph node / nonspecific immigration", "setting": "Langerhans cells", "value": "striking effect"}, {"measurement": "inhibiting tumor cell growth", "setting": "EG7-OVA cells; cutaneous topical acetone and dibutylphthalate without peptide, 5 × 10^5 EG7-OVA cells s.c.", "value": "none of the treatment protocols were effective"}]}, {"molecule": "NC(=O)CC[C@@H]1NC(=O)[C@H](Cc2ccccc2)NC(=O)[C@H](Cc2ccc(O)cc2)NC(=O)[C@@H](N)CSSC[C@@H](C(=O)N2CCC[C@H]2C(=O)N[C@@H](CCCN=C(N)N)C(=O)NCC(N)=O)NC(=O)[C@H](CC(N)=O)NC1=O", "note": "[vassopressin]", "values": [{"measurement": "fraction that crossed the stratum corneum", "setting": "[1]", "value": "about 0.4 % per hour"}]}, {"molecule": "Fluorescein isothiocyanate [FITC]", "values": [{"measurement": "time required for maximal rate of immigration into the lymph node", "setting": "Langerhans cells; after topical administration", "value": "48 to 72", "unit": "h"}]}, {"molecule": "dibenzylbutylphthalate [DBBP]", "values": [{"measurement": "Total MHC class II^th cells, distance from the positive control, dibutylphthalate (DBP)", "setting": "Langerhans cells", "value": "≤ 1", "unit": "standard deviation"}]}]}
